In assay [1] the target is T1, adenosine A2a receptor (A2aR) (Homo sapiens, UniProt P29274).
T1 construct: expressed in transfected cells; host or cells: CHO-K1
Description: Inhibition of adenosine A2a receptor cAMP signaling pathway in CHO-K1/A2aR cells (HTRF cAMP dynamic 2 kit). It is filed as cell-based. The conditions noted are these: Table 1, 20 nM ethylcarbazole. The method, boiled down:
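CHO-K1/A2aR cells (10^6 cells/mL) in HBSS with 20 mM HEPES, 0.1% BSA, rolipram and adenosine deaminase, exposed to compound (0.001024–10000 nM) for 30 min at RT. Then agonist "ethylcarbazole" at 20 nM final, 30 min RT. cAMP read by HTRF after 1 h in lysis buffer.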

In assay [2] the target is T2, adenosine A3 receptor (A3R) (Homo sapiens, UniProt P0DMS8).
T2 construct: expressed in transfected cells; host or cells: CHO-K1
T2 sequence (P0DMS8 1-318): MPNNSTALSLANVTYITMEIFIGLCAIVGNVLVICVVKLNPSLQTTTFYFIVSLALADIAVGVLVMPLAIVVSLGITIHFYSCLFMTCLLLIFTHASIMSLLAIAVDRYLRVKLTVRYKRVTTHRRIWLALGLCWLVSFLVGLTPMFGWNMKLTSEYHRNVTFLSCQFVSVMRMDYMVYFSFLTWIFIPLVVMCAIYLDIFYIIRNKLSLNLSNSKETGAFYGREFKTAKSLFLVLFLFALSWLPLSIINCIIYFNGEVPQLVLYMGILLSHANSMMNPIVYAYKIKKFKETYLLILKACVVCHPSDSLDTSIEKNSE
As to the kind of experiment: Inhibition of adenosine A3 receptor cAMP signaling pathway in CHO-K1/A3R cells (HTRF cAMP dynamic 2 kit). Format: cell-based. Conditions: Table 3; for IC50: CHO-K1/A3R cells, cAMP, 10 μM forskolin, 5 nM 2Cl-IB-MECA; for IC50 ratio (A3R/A2aR): selectivity A3R over A2aR. The method, boiled down:
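CHO-K1 cells expressing A3R, in HBSS/HEPES/BSA with rolipram and adenosine deaminase, were preincubated 30 min with compound (0.1–100000 nM final). They were then stimulated 30 min with 10 μM forskolin plus 5 nM 2Cl-IB-MECA at room temperature. cAMP read by HTRF and IC50 calculated.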
For orientation: In TR-FRET formats the signal depends on donor and acceptor labels being close together.

Each structure is given as a SMILES string.

The IC50 is the point on the concentration scale where inhibition reaches its midpoint. Lower therefore signals higher potency.

T1 sequence (P29274 whole entry): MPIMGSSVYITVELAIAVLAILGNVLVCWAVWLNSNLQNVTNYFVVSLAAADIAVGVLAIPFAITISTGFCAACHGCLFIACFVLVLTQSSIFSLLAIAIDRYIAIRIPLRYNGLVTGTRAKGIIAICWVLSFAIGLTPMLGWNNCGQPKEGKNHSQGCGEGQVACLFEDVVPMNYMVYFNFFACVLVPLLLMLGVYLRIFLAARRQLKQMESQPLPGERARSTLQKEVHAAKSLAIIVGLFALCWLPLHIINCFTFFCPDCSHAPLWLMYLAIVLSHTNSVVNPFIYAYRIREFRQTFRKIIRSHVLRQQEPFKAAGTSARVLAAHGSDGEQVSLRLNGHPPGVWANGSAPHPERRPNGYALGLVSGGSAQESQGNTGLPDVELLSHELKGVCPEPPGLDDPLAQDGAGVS

`Cc1ccc(-c2nc(N)nc3c(Cc4cccc(CO[C@H]5CCOC5)n4)cnn23)o1` [Example 1, (S)-4-(5-Methylfuran-2-yl)-8-((6-(((tetrahydrofuran-3-yl)oxy)methyl)pyridin-2-yl)methyl)pyrazolo[1,5-a][1,3,5]triazin-2-amine] yielded an IC50 in assay [1] of 0.33 nM. Besides, in assay [2], the IC50 came out at 2060 nM and the “IC50 ratio (A3R/A2aR)” value is reported as >10^3.
The matching figures for `Cc1ccc(-c2nc(N)nc3c(Nc4cccc(CO[C@H]5CCOC5)n4)cnn23)o1` [Example 18, (S)-4-(5-Methylfuran-2-yl)-N^8-(6-(((tetrahydrofuran-3-yl)oxy)methyl)pyridin-2-yl)pyrazolo[1,5-a][1,3,5]triazine-2,8-diamine]: 0.87 nM, 2200 nM and >10^3.
For `Cc1ccc(-c2nc(N)nc3c(Oc4cccc(CO[C@H]5CCOC5)n4)cnn23)o1` [Example 19, (S)-4-(5-Methylfuran-2-yl)-8-((6-(((tetrahydrofuran-3-yl)oxy)methyl)pyridin-2-yl)oxy)pyrazolo[1,5-a][1,3,5]triazin-2-amine], in that order: 0.36 nM, 4790 nM and >10^3.

These data come from patent US20210032253A1, “PYRAZOLO[1,5-A][1,3,5]TRIAZINE-2-AMINE DERIVATIVE, PREPARATION METHOD THEREFOR AND MEDICAL USE THEREOF” (JIANGSU HENGRUI MEDICINE CO., LTD., priority 2018, published 2021).
